Test results published in patent US20230085307A1, “PYRIDAZINONE COMPOUND AND HERBICIDE” (NISSAN CHEMICAL CORPORATION, priority 2019, published 2023).

Tests used:
windgrass = assay: Test Example 5: herbicidal effect by foliage application, plastic box (Table 20, symbol L); assay type: in vivo, windgrass (Apera spica-venti); details: amount of applied herbicide 320 g/ha; foliage application after 14-day growth; evaluated three weeks after application
Summary of the method: (§1)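 Foliar spray test: emulsion formulation diluted in water to a set application rate, sprayed onto 14-day-old plants raised in diluvial soil at 25° C to 30° C under glass. Both herbicidal effect and crop effect rated visually three weeks later.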

redroot pigweed = assay: Test Example 5: herbicidal effect by foliage application, plastic box (Table 20, symbol N); assay type: in vivo, redroot pigweed (Amaranthus retroflexus); details: amount of applied herbicide 320 g/ha; foliage application after 14-day growth; evaluated three weeks after application
Summary of the method: as §1

velvetleaf = assay: Test Example 5: herbicidal effect by foliage application, plastic box (Table 20, symbol M); assay type: in vivo, velvetleaf (Abutilon theophrasti); details: amount of applied herbicide 320 g/ha; foliage application after 14-day growth; evaluated three weeks after application
Summary of the method: as §1

barnyard grass [1] = assay: Test Example 5: herbicidal effect by foliage application, plastic box (Table 20, symbol H); assay type: in vivo, barnyard grass (Echinochloa crus-galli); details: amount of applied herbicide 320 g/ha; foliage application after 14-day growth; evaluated three weeks after application
Summary of the method: as §1

Italian ryegrass = assay: Test Example 5: herbicidal effect by foliage application, plastic box (Table 20, symbol K); assay type: in vivo, Italian ryegrass (Lolium multiflorum); details: amount of applied herbicide 320 g/ha; foliage application after 14-day growth; evaluated three weeks after application
Summary of the method: as §1

southern crabgrass = assay: Test Example 5: herbicidal effect by foliage application, plastic box (Table 20, symbol F); assay type: in vivo, southern crabgrass (Digitaria ciliaris); details: amount of applied herbicide 320 g/ha; foliage application after 14-day growth; evaluated three weeks after application
Summary of the method: as §1

barnyard grass [2] = assay: Test Example 3: herbicidal effect by foliage application, Wagner pot (Table 18, symbol H); assay type: in vivo, barnyard grass (Echinochloa crus-galli); details: 320 g/ha
Summary of the method: (§2)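 Plants were sown in alluvial soil held under 0.1–0.5 cm standing water and grown 14 days in a greenhouse at 25–30 °C. An emulsifiable formulation, water-diluted to the set dose, was then sprayed onto the foliage, and effects were scored three weeks later using previously defined criteria.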

persian speedwell = assay: Test Example 5: herbicidal effect by foliage application, plastic box (Table 20, symbol R); assay type: in vivo, Persian speedwell (Veronica persica); details: amount of applied herbicide 320 g/ha; foliage application after 14-day growth; evaluated three weeks after application
Summary of the method: as §1

blackgrass = assay: Test Example 5: herbicidal effect by foliage application, plastic box (Table 20, symbol J); assay type: in vivo, blackgrass (Alopecurus myosuroides); details: amount of applied herbicide 320 g/ha; foliage application after 14-day growth; evaluated three weeks after application
Summary of the method: as §1

Chinese sprangletop = assay: Test Example 3: herbicidal effect by foliage application, Wagner pot (Table 18, symbol D); assay type: in vivo, chinese sprangletop (Leptochloa chinensis); details: 320 g/ha
Summary of the method: as §2

green foxtail = assay: Test Example 5: herbicidal effect by foliage application, plastic box (Table 20, symbol G); assay type: in vivo, green foxtail (Setaria viridis); details: amount of applied herbicide 320 g/ha; foliage application after 14-day growth; evaluated three weeks after application
Summary of the method: as §1

wild oat = assay: Test Example 5: herbicidal effect by foliage application, plastic box (Table 20, symbol I); assay type: in vivo, wild oat (Avena fatua); details: amount of applied herbicide 320 g/ha; foliage application after 14-day growth; evaluated three weeks after application
Summary of the method: as §1

lambsquarters = assay: Test Example 5: herbicidal effect by foliage application, plastic box (Table 20, symbol O); assay type: in vivo, lambsquarters (Chenopodium album); details: amount of applied herbicide 320 g/ha; foliage application after 14-day growth; evaluated three weeks after application
Summary of the method: as §1

rice flat sedge = assay: Test Example 3: herbicidal effect by foliage application, Wagner pot (Table 18, symbol E); assay type: in vivo, rice flat sedge (Cyperus iria); details: 320 g/ha
Summary of the method: as §2

chickweed = assay: Test Example 5: herbicidal effect by foliage application, plastic box (Table 20, symbol P); assay type: in vivo, common chickweed (Stellaria media); details: amount of applied herbicide 320 g/ha; foliage application after 14-day growth; evaluated three weeks after application
Summary of the method: as §1

Cc1nn(C)c(=O)c(-c2c(-c3ccc(C(F)(F)F)cc3)sc3cc(Cl)c(Cl)cc23)c1O [5-047]
Herbicidal effect by foliage application, L: windgrass (windgrass): 2 (Herbicidal rate of 20% or more and less than 40%) | Herbicidal effect by foliage application, N: redroot pigweed (redroot pigweed): 3 (Herbicidal rate of 40% or more and less than 70%) | Herbicidal effect by foliage application, M: velvetleaf (velvetleaf): 0 (Herbicidal rate of 5% or less (almost no effect)) | Herbicidal effect by foliage application, H: barnyard grass (barnyard grass [1]): 0 (Herbicidal rate of 5% or less (almost no effect)) | Herbicidal effect by foliage application, K: Italian ryegrass (Italian ryegrass): 0 (Herbicidal rate of 5% or less (almost no effect)) | Herbicidal effect by foliage application, F: southern crabgrass (southern crabgrass): 0 (Herbicidal rate of 5% or less (almost no effect)) | herbicidal effect on barnyard grass (H) (barnyard grass [2]): 3 (Herbicidal rate of 40% or more and less than 70%) | Herbicidal effect by foliage application, R: persian speedwell (persian speedwell): 0 (Herbicidal rate of 5% or less (almost no effect)) | Herbicidal effect by foliage application, J: blackgrass (blackgrass): 0 (Herbicidal rate of 5% or less (almost no effect)) | herbicidal effect on Chinese sprangletop (D) (Chinese sprangletop): 0 (Herbicidal rate of 5% or less (almost no effect)) | Herbicidal effect by foliage application, G: green foxtail (green foxtail): 0 (Herbicidal rate of 5% or less (almost no effect)) | Herbicidal effect by foliage application, I: wild oat (wild oat): 0 (Herbicidal rate of 5% or less (almost no effect)) | Herbicidal effect by foliage application, O: lambsquarters (lambsquarters): 1 (Herbicidal rate of 5% or more and less than 20%) | herbicidal effect on rice flat sedge (E) (rice flat sedge): 0 (Herbicidal rate of 5% or less (almost no effect)) | Herbicidal effect by foliage application, P: chickweed (chickweed): 0 (Herbicidal rate of 5% or less (almost no effect))
